# Laboratory results: patent publication US12655116B2, “Substituted isophthalic acid diamides” (Bayer Aktiengesellschaft, priority 2020, dated 2026)
# How the values were obtained:
# [1] = test system: MATIN; assay: Pre-emergence herbicidal action against MATIN; format: in vivo, Matricaria inodora
# Summary of the method: (§1)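 Pre-emergence soil-surface spray of formulated compound (WP or EC; 600 to 800 l/ha; 0.2% wetting agent) over seeds sown in sandy loam. After 3 weeks under greenhouse conditions, damage is estimated visually in percent against untreated plants.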
# [2] = test system: AMARE; assay: Post-emergence herbicidal action against AMARE; format: in vivo, Amaranthus retroflexus; details: 20 g/ha, visual assessment about 3 weeks after treatment, 100% = plants have died, 0% = like control plants
# Summary of the method: (§2)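 Spray, one-leaf stage: WP or EC compound in water, 600–800 l/ha, 0.2% wetting agent. Plants held about 3 weeks in the greenhouse, then visually rated in percent of kill compared with untreated controls.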
# [3] = test system: POLCO; assay: Pre-emergence herbicidal action against POLCO; format: in vivo, Polygonum convolvulus; details: dosage 80 g/ha
# Summary of the method: as §1
# [4] = test system: PHBPU; assay: Pre-emergence herbicidal action against PHBPU; format: in vivo, Pharbitis purpurea
# Summary of the method: as §1
# [5] = test system: VERPE; assay: Post-emergence herbicidal action against VERPE; format: in vivo, Veronica persica
# Summary of the method: as §2
# [6] = test system: DIGSA; assay: Pre-emergence herbicidal action against DIGSA; format: in vivo, Digitaria sanguinalis
# Summary of the method: as §1
# [7] = test system: MATIN; assay: Post-emergence herbicidal action against MATIN; format: in vivo, Matricaria inodora
# Summary of the method: as §2
# [8] = test system: DIGSA; assay: Post-emergence herbicidal action against DIGSA; format: in vivo, Digitaria sanguinalis
# Summary of the method: as §2
# [9] = test system: ABUTH; assay: Post-emergence herbicidal action against ABUTH; format: in vivo, Abutilon theophrasti; details: visual assessment about 3 weeks after treatment vs untreated controls
# Summary of the method: as §2
# [10] = test system: SETVI; assay: Pre-emergence herbicidal action against SETVI; format: in vivo, Setaria viridis; details: dosage 80 g/ha
# Summary of the method: as §1
# [11] = test system: VIOTR; assay: Post-emergence herbicidal action against VIOTR; format: in vivo, Viola tricolor
# Summary of the method: as §2
# [12] = test system: AVEFA; assay: Pre-emergence herbicidal action against AVEFA; format: in vivo, Avena fatua; details: Avena fatua, 504 h; 80 g/ha, pre-emergence
# Summary of the method: as §1
# [13] = test system: PHBPU; assay: Post-emergence herbicidal action against PHBPU; format: in vivo, Pharbitis purpurea
# Summary of the method: as §2
# [14] = test system: AVEFA; assay: Post-emergence herbicidal action against AVEFA; format: in vivo, Avena fatua; details: 20 g/ha, visual assessment about 3 weeks after treatment, 100% = plants have died, 0% = like control plants
# Summary of the method: as §2
# [15] = test system: ABUTH; assay: Pre-emergence herbicidal action against ABUTH; format: in vivo, Abutilon theophrasti
# Summary of the method: as §1
# [16] = test system: VERPE; assay: Pre-emergence herbicidal action against VERPE; format: in vivo, Veronica persica; details: Veronica persica, 504 h, dosage 80 g/ha
# Summary of the method: as §1
# [17] = test system: ECHCG; assay: Pre-emergence herbicidal action against ECHCG; format: in vivo, Echinochloa crus-galli; details: 80 g/ha
# Summary of the method: as §1
# [18] = test system: VIOTR; assay: Pre-emergence herbicidal action against VIOTR; format: in vivo, Viola tricolor
# Summary of the method: as §1
# [19] = test system: SETVI; assay: Post-emergence herbicidal action against SETVI; format: in vivo, Setaria viridis
# Summary of the method: as §2
# [20] = test system: ECHCG; assay: Post-emergence herbicidal action against ECHCG; format: in vivo, Echinochloa crus-galli
# Summary of the method: as §2
# [21] = test system: AMARE; assay: Pre-emergence herbicidal action against AMARE; format: in vivo, Amaranthus retroflexus
# Summary of the method: as §1
# [22] = test system: ALOMY; assay: Pre-emergence herbicidal action against ALOMY; format: in vivo, Alopecurus myosuroides; details: 80 g/ha, pre-emergence, scored visually after 3 weeks vs untreated controls (100% = plants have died, 0% = like control plants)
# Summary of the method: as §1
# [23] = test system: ALOMY; assay: Post-emergence herbicidal action against ALOMY; format: in vivo, Alopecurus myosuroides; details: dosage 20 g/ha, visual assessment about 3 weeks after treatment vs untreated controls
# Summary of the method: as §2
# [24] = Tripleurospermum inodorum, 504 h, dosage 20 g/ha
# [25] = Ipomoea purpurea, 504 h, dosage 20 g/ha
# [26] = 80 g/ha, scored visually after 3 weeks vs untreated controls (100% = plants have died, 0% = like control plants)
smiles,measurement,setting,value
CCc1c(C(=O)Nc2nnnn2C)ccc(C(F)F)c1C(=O)NC [Example 1-277],pest or weed control at 20 g/ha,[1]; [24],90%
same,pest or weed control at 80 g/ha,"[1]; Tripleurospermum inodorum, 504 h, dosage 80 g/ha",100%
same,pest or weed control at 20 g/ha,"[2]; Amaranthus retroflexus, 504 h",100%
same,pest or weed control at 80 g/ha,"[3]; Fallopia convolvulus, 504 h",90%
same,pest or weed control at 20 g/ha,[4]; [25],80%
same,pest or weed control at 80 g/ha,"[4]; Ipomoea purpurea, 504 h, dosage 80 g/ha",90%
same,pest or weed control at 5 g/ha,"[5]; Veronica persica, 504 h, 5 g/ha",80%
same,pest or weed control at 20 g/ha,"[5]; Veronica persica, 504 h, 20 g/ha",90%
same,pest or weed control at 20 g/ha,"[6]; Digitaria sanguinalis, 504 h, dosage 20 g/ha",100%
same,pest or weed control at 80 g/ha,"[6]; Digitaria sanguinalis, 504 h, dosage 80 g/ha",100%
same,pest or weed control at 5 g/ha,"[7]; Tripleurospermum inodorum, 504 h, dosage 5 g/ha",90%
same,pest or weed control at 20 g/ha,[7]; [24],90%
same,pest or weed control at 5 g/ha,"[8]; Digitaria sanguinalis, 504 h, 5 g/ha",90%
same,pest or weed control at 20 g/ha,"[8]; Digitaria sanguinalis, 504 h, 20 g/ha",90%
same,pest or weed control at 5 g/ha,"[9]; Abutilon theophrasti, 504 h, dosage 5 g/ha",90%
same,pest or weed control at 20 g/ha,"[9]; Abutilon theophrasti, 504 h, dosage 20 g/ha",90%
same,pest or weed control at 80 g/ha,"[10]; Setaria viridis, 504 h",100%
same,pest or weed control at 5 g/ha,"[11]; Viola tricolor, 504 h, 5 g/ha",80%
same,pest or weed control at 20 g/ha,"[11]; Viola tricolor, 504 h, 20 g/ha",90%
same,pest or weed control at 80 g/ha,[12],90%
same,pest or weed control at 5 g/ha,"[13]; Ipomoea purpurea, 504 h, dosage 5 g/ha",90%
same,pest or weed control at 20 g/ha,[13]; [25],90%
same,pest or weed control at 20 g/ha,"[14]; Avena fatua, 504 h",80%
same,pest or weed control at 80 g/ha,"[15]; Abutilon theophrasti, 504 h, 80 g/ha, scored visually after 3 weeks vs untreated controls (100% = plants have died, 0% = like control plants)",100%
same,pest or weed control at 20 g/ha,"[15]; Abutilon theophrasti, 504 h, dosage 20 g/ha, scored visually after 3 weeks vs untreated controls, 100% = plants have died, 0% = like control plants, read-out: Pre-emergence action against ABUTH (herbicidal activity in percent)",90%
same,pest or weed control at 80 g/ha,[16],90%
same,pest or weed control at 80 g/ha,"[17]; Echinochloa crus-galli, 504 h",90%
same,pest or weed control at 20 g/ha,"[18]; Viola tricolor, 504 h, dosage 20 g/ha",100%
same,pest or weed control at 80 g/ha,"[18]; Viola tricolor, 504 h, dosage 80 g/ha",100%
same,pest or weed control at 5 g/ha,"[19]; Setaria viridis, 504 h, dosage 5 g/ha",90%
same,pest or weed control at 20 g/ha,"[19]; Setaria viridis, 504 h, dosage 20 g/ha",90%
same,pest or weed control at 20 g/ha,"[20]; Echinochloa crus-galli, 504 h, dosage 20 g/ha",90%
same,pest or weed control at 20 g/ha,"[21]; Amaranthus retroflexus, 504 h, 20 g/ha, scored visually after 3 weeks vs untreated controls, 100% = plants have died, 0% = like control plants",100%
same,pest or weed control at 80 g/ha,"[21]; Amaranthus retroflexus, 504 h, 80 g/ha, scored visually after 3 weeks vs untreated controls, 100% = plants have died, 0% = like control plants",100%
same,pest or weed control at 80 g/ha,"[22]; Alopecurus myosuroides, 504 h",90%
Cn1nnnc1NC(=O)c1ccc(C(F)(F)F)c(C(=O)NCC(F)F)c1C1CC1 [Example 1-291],Pre-emergence action against MATIN in %,[1]; dosage 20 g/ha,90%
same,Pre-emergence action against MATIN in %,[1]; dosage 80 g/ha,100%
same,Post-emergence action at 20 g/ha against AMARE in %,[2],90%
same,Pre-emergence action against POLCO in %,[3],80%
same,Pre-emergence action against PHBPU in %,[4]; dosage 80 g/ha,80%
same,Post-emergence action against VERPE in %,[5]; 20 g/ha,80%
same,Pre-emergence action against DIGSA in %,[6]; dosage 20 g/ha,100%
same,Pre-emergence action against DIGSA in %,[6]; dosage 80 g/ha,100%
same,Post-emergence action against MATIN in %,[7]; dosage 5 g/ha,80%
same,Post-emergence action against MATIN in %,[7]; dosage 20 g/ha,90%
same,Post-emergence action against DIGSA in %,[8]; 5 g/ha,90%
same,Post-emergence action against DIGSA,[8]; 20 g/ha,100%
same,Post-emergence action against ABUTH in %,[9]; dosage 5 g/ha,80%
same,Post-emergence action against ABUTH in %,[9]; dosage 20 g/ha,90%
same,Pre-emergence action against SETVI in %,[10],100%
same,Post-emergence action against VIOTR in %,[11]; 5 g/ha,90%
same,Post-emergence action against VIOTR in %,[11]; 20 g/ha,100%
same,Post-emergence action against PHBPU in %,[13]; dosage 5 g/ha,80%
same,Post-emergence action against PHBPU in %,[13]; dosage 20 g/ha,90%
same,Post-emergence action at 20 g/ha against AVEFA in %,[14],80%
same,Pre-emergence action against ABUTH (herbicidal activity),[15]; [26],100%
same,Pre-emergence action against ABUTH (herbicidal activity in percent),"[15]; dosage 20 g/ha, scored visually after 3 weeks vs untreated controls, 100% = plants have died, 0% = like control plants",100%
same,Pre-emergence action against ECHCG in %,[17],90%
same,Post-emergence action against ALOMY in %,[23],90%
same,Pre-emergence action against VIOTR in %,[18]; dosage 20 g/ha,100%
same,Pre-emergence action against VIOTR in %,[18]; dosage 80 g/ha,100%
same,Post-emergence action against SETVI in %,[19]; dosage 20 g/ha,80%
same,Post-emergence action against ECHCG in %,[20]; dosage 5 g/ha,80%
same,Post-emergence action against ECHCG in %,[20]; dosage 20 g/ha,80%
same,Pre-emergence action against AMARE in %,"[21]; 20 g/ha, scored visually after 3 weeks vs untreated controls, 100% = plants have died, 0% = like control plants",100%
same,Pre-emergence action against AMARE in %,[21]; [26],100%
same,Pre-emergence action against ALOMY (herbicidal activity),[22],80%
